Data: patent publication US20220073536A1 (Rigel Pharmaceuticals, Inc., priority 2003, published 2022)
pIC50: −log10 of the molar value. Counter-ions that a name gives are not always drawn. One block for each compound: values may come before it.

Assays:
[1] = system: cultured human mast cells (CHMC); test: CHMC low cell density IgE activation: tryptase assay; format: cell-based; conditions: IgE activation
Outline: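 Anti-IgE-driven degranulation of cultured human mast cells at low density, 1000–1500 cells/well, was induced over 30 min at 37 °C. It was scored by supernatant tryptase activity on a fluorogenic substrate.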

[2] = system: cultured human mast cells (CHMC); test: CHMC low cell density ionomycin activation: tryptase assay; format: cell-based; conditions: read-out: LD Tryptase, CHMC, Iono, 3 pt
[3] = Homo sapiens, Mast cell, low cell density CHMC, tryptase release, 3 pt, read-out: LD Tryptase, CHMC, IgE, 3 pt
[4] = Homo sapiens, Mast cell, low cell density CHMC, tryptase release, 3 pt
[5] = Homo sapiens, Mast cell, low cell density CHMC, tryptase, 3 pt, read-out: LD Tryptase, CHMC, IgE, 3 pt
[6] = Homo sapiens, Mast cell, low cell density CHMC, tryptase, 3 pt
[7] = low cell density CHMC, tryptase readout, 8 pt, read-out: LD Tryptase, CHMC, IgE, 8 pt
[8] = Homo sapiens, Mast cell, low cell density CHMC, tryptase, 8 pt, read-out: LD Tryptase, CHMC, IgE, 8 pt
[9] = Homo sapiens, Mast cell, low cell density CHMC, tryptase release, 8 pt, read-out: LD Tryptase, CHMC, IgE, 8 pt
[10] = low cell density, 3 pt, read-out: LD Tryptase, CHMC, IgE, 3 pt
[11] = low cell density, 8 pt, read-out: LD Tryptase, CHMC, IgE, 8 pt
[12] = low cell density CHMC, tryptase, 8 pt, read-out: LD Tryptase, CHMC, IgE, 8 pt
[13] = Homo sapiens, Mast cell, low cell density, 8 pt, read-out: LD Tryptase, CHMC, IgE, 8 pt
[14] = low cell density CHMC, tryptase, 3 pt, read-out: LD Tryptase, CHMC, IgE, 3 pt
[15] = Homo sapiens, Mast cell, low cell density, 3 pt, read-out: LD Tryptase, CHMC, IgE, 3 pt

Compound: CN1C(=O)COc2cc(Nc3nc(Nc4ccc(-c5ncco5)cc4)ncc3F)ccc21 [Compound 244]
pIC50 [1, 3]: < 5.00
pIC50 [2, 4]: < 5.00

Compound: O=C1Nc2cc(Nc3nc(Nc4ccc(-c5ncco5)cc4)ncc3F)ccc2OC1CCO (centres unmarked) [Compound 242]
pIC50 [1, 3]: > 5.00
pIC50 [1, 9]: > 5.00
pIC50 [2, 4]: < 5.00

Compound: CCOC(=O)C(C)(C)Oc1ccc(Nc2nc(Nc3ccc(Cl)c(C(=O)NC)c3)ncc2F)cc1Cl [Compound 452, N4-[3-Chloro-4-(ethoxycarbonyl-1,1-dimethylmethyleneoxy)phenyl]-N2-[4-chloro-3-(N-methylamino)carbonylphenyl]-5-fluoro-2,4-pyrimidinediamine]
pIC50 [1, 10]: > 5.00
pIC50 ([2]; low cell density, 3 pt): > 5.00

Compound: Cc1cc(C)cc(Nc2ncc(F)c(N(C)c3ccc(OC(C)C)nc3)n2)c1 [Compound 583, N2-(3,5-Dimethylphenyl)-5-fluoro-N4-(2-isopropoxypyrid-5-yl)-N4-methyl-2,4-pyrimidinediamine]
pIC50 ([1]; Homo sapiens, Mast cell, low cell density CHMC, tryptase release, 3 point, read-out: LD Tryptase, CHMC, IgE, 3 pt): > 5.00
pIC50 ([2]; Homo sapiens, Mast cell, low cell density CHMC, tryptase release, 3 point): < 5.00

Compound: Cc1cc(C)cc(Nc2ncc(F)c(Nc3ccc(OCCO)nc3)n2)c1 [Compound 504, N2-(3,5-Dimethylphenyl)-5-fluoro-N4-[2-(2-hydroxyethyleneoxy)pyrid-5-yl]-2,4-pyrimidinediamine]
pIC50 [1, 10]: > 5.00
pIC50 [1, 11]: > 5.00
pIC50 ([2]; low cell density, 3 pt): < 5.00

Compound: CNC(=O)COc1cccc(Nc2ncc(F)c(Nc3ccc4c(n3)NC(=O)C(C)(C)O4)n2)c1 [Compound 992, N4-(2,2-Dimethyl-3-oxo-4H-5-pyrid[1,4]oxazin-6-yl)-5-fluoro-N2-[3-(N-methylamino)carbonylmethyleneoxyphenyl]-2,4-pyrimidinediamine (+)-Camphorsulfonic Acid Salt]
pIC50 ([2]; low cell density, 3 pt): < 5.00

Compound: COC(=O)C(C)(C)Oc1ccc(Nc2nc(Nc3cc(C)cc(C)c3)ncc2F)cc1Cl [Compound 402, N4-[3-Chloro-4-(methoxycarbonyl-1,1-dimethylmethyleneoxy)phenyl]-N2-(3,5-dimethylphenyl)-5-fluoro-2,4-pyrimidinediamine]
pIC50 [1, 12]: > 5.00

Compound: COc1ccc(Nc2nc(N)nc(-c3ccc4c(c3)nc(C(F)(F)F)n4CCO)c2F)cc1Cl [Compound 917]
pIC50 [1, 13]: > 5.00

Compound: (S)-N2-[3- (N-tert-Butoxycarbonylamino)methylenephenyl]-5-fluoro-N4- (2-methyl-3-oxo-2H,4H-benz[1,4]oxazin-6-yl)-2,4-pyrimidinediamine [Compound 1276]
pIC50 [1, 14]: > 5.00
pIC50 [1, 12]: > 5.00

Compound: COc1cc(Nc2nc(Nc3ccc4c(cnn4CC4CCCCC4)c3)ncc2F)ccc1F [Compound 721, N2-[1-(Cyclohexylmethyl)indazol-5-yl)-5-fluoro-N4-(4-fluoro-3-methoxyphenyl)-2,4-pyrimidinediamine]
pIC50 [1, 5]: > 5.00

Compound: Cn1ncc2ccc(Nc3ncc(F)c(Nc4ccc5c(c4)NC(=O)C(C)(C)S5)n3)cc21 [Compound 311]
pIC50 [1, 3]: > 5.00
pIC50 [1, 9]: > 5.00

Compound: CC1(C)C(=O)Nc2cc(Nc3nc(Nc4ccc5cn[nH]c5c4)ncc3F)ccc2S1(=O)=O [Compound 273]
pIC50 [1, 9]: > 5.00

Compound: CNC(=O)COc1c(C)cc(Nc2ncc(F)c(Nc3ccc4c(c3)OCO4)n2)cc1C [Compound 575, N2-[3,5-dimethyl-4-(N-methylamino)carbonylmethyleneoxyphenyl]-5-fluoro-N4-(3,4-methylenedioxyphenyl)-2,4-pyrimidinediamine]
pIC50 ([1]; low cell density CHMC, tryptase release, 3 point, read-out: LD Tryptase, CHMC, IgE, 3 pt): > 5.00
pIC50 ([1]; low cell density CHMC, tryptase release, 8 point, read-out: LD Tryptase, CHMC, IgE, 8 pt): > 5.00

Compound: O=C1CS(=O)(=O)c2ccc(Nc3nc(Nc4ccc5cn[nH]c5c4)ncc3F)cc2N1 [Compound 307]
pIC50 [1, 9]: > 5.00

Compound: Cn1c(C(F)(F)F)nc2cc(Nc3ncc(F)c(Nc4ccc5c(c4)NC(=O)C(C)(C)O5)n3)ccc21 [Compound 913]
pIC50 [1, 11]: > 5.00

Compound: COc1cc(Nc2ncc(F)c(Nc3ccc(OC)c(N)n3)n2)cc(OC)c1 [Compound 544]
pIC50 [1, 15]: > 5.00

Compound: Fc1cnc(Nc2ccc3c(cnn3CC3CC3)c2)nc1Nc1ccc(Cl)c(Cl)c1 [Compound 735, N2-[1-(Cyclopropylmethyl)indazol-5-yl]-N4-(3,4-dichlorophenyl)-5-fluoro-2,4-pyrimidinediamine]
pIC50 [1, 5]: > 5.00

Compound: Cc1cc(C)cc(Nc2nc(Nc3cc(C)c(Cl)c(C)c3)ncc2F)c1 [Compound 560]
pIC50 [1, 15]: < 5.00

Compound: C[C@@H]1Oc2ccc(Nc3nc(Nc4ccc5c(cnn5CCCN5C(=O)CCC5=O)c4)ncc3F)cc2NC1=O [Compound 856, (S)-5-Fluoro-N4-(2-methyl-3-oxo-2H,4H-benz[1,4]oxazin-6-yl)-N2-[1-[3-(N-succinimidopropyl)]indazol-5-yl]-2,4-pyrimidinediamine]
pIC50 ([1]; low cell density CHMC, tryptase release, 3 pt, read-out: LD Tryptase, CHMC, IgE, 3 pt): > 5.00
pIC50 ([1]; low cell density CHMC, tryptase release, 8 pt, read-out: LD Tryptase, CHMC, IgE, 8 pt): > 5.00

Compound: COc1c(Cl)cc(Nc2nc(Nc3cc(Cl)c(O)c(Cl)c3)ncc2F)cc1Cl [Compound 548]
pIC50 [1, 15]: > 5.00
pIC50 [1, 13]: > 5.00

Results, then the compound that gave them:

pIC50 [1, 5]: < 5.00
pIC50 [2, 6]: > 5.00
Compound: Fc1cnc(Nc2cccc(N3CCOCC3)c2)nc1NC1CNC1 [Compound 1126]

pIC50 [1, 7]: > 5.00
pIC50 ([2]; low cell density CHMC, tryptase readout, 3 pt): < 5.00
Compound: CNC(=O)COc1c(C)cc(Nc2ncc(F)c(Nc3ccc4c(n3)NC(=O)C(C)(C)O4)n2)cc1Cl [Compound 1037, N2-[3-Chloro-5-methyl-4-(N-methylamino)carbonylmethyleneoxyphenyl]-N4-(2,2-dimethyl-3-oxo-4H-5-pyrid[1,4]oxazin-6-yl)-5-fluoro-2,4-pyrimidinediamine]

pIC50 [1, 5]: > 5.00
pIC50 [1, 8]: > 5.00
pIC50 [2, 6]: < 5.00
Compound: C[C@@H]1Oc2ccc(Nc3nc(Nc4cccc(-c5ncco5)c4)ncc3F)cc2NC1=O [Compound 1282]

pIC50 ([1]; Homo sapiens, Mast cell, low cell density CHMC, tryptase readout, 3 pt, read-out: LD Tryptase, CHMC, IgE, 3 pt): > 5.00
pIC50 ([1]; Homo sapiens, Mast cell, low cell density CHMC, tryptase readout, 8 pt, read-out: LD Tryptase, CHMC, IgE, 8 pt): > 5.00
pIC50 ([2]; Homo sapiens, Mast cell, low cell density CHMC, tryptase readout, 3 pt): < 5.00
Compound: Fc1cnc(Nc2cccc(N3CCOCC3)c2)nc1NC1CCC1 [Compound 1108, N4-Cyclobutyl-5-fluoro-N2-(3-morpholinophenyl)-2,4-pyrimidinediamine]

pIC50 [1, 13]: > 5.00
Compound: CC1(C)Oc2ccc(Nc3nc(Nc4ccc5[nH]c(N6CCOCC6)nc5c4)ncc3F)nc2NC1=O [Compound 977, N4-(2,2-Dimethyl-3-oxo-4H-5-pyrido[1,4]oxazin-6-yl)-5-fluoro-N2-[2-(4-morpholino)-1H-benzimidazol-5-yl]-2,4-pyrimidinediamine]

pIC50 [1, 5]: < 5.00
Compound: COC(=O)c1ccc(Nc2ncc(F)c(Nc3ccc(Cl)c(Cl)c3)n2)cc1 [Compound 1261]

pIC50 [1, 12]: > 5.00
Compound: Fc1cnc(Nc2ccc3cn[nH]c3c2)nc1NCC1COc2ccccc2O1 (centres unmarked) [Compound 1260, N4-[ (2,3-Dihydro-1,4-benzodioxan-2-yl)methyl]-5-fluoro-N2-(indazol-6-yl)-2,4-pyrimidinediamine]

pIC50 [1, 5]: > 5.00
pIC50 [1, 8]: > 5.00
Compound: NC(=O)c1ccc(Nc2ncc(F)c(Nc3ccccc3)n2)cc1 [Compound 1357, N2-(4-Aminocarbonylphenyl)-5-fluoro-N4-phenyl-2,4-pyrimidinediamine]

pIC50 [1, 5]: < 5.00
Compound: NC(=O)c1ccc(Nc2ncc(F)c(NC3CCCC3)n2)cc1 [Compound 1349]

pIC50 [1, 7]: > 5.00
Compound: CCOC(=O)N1CCN(c2cccc(Nc3ncc(F)c(Nc4ccc5c(n4)NC(=O)C(C)(C)O5)n3)c2)CC1 [Compound 1075, N4-(2,2-Dimethyl-3-oxo-4H-5-pyrid[1,4]oxazin-6-yl)-N2-[3-(4-ethoxycarbonylpiperazino)phenyl]-5-fluoro-2,4-pyrimidinediamine]

pIC50 [1, 14]: > 5.00
pIC50 [1, 12]: > 5.00
Compound: Cc1cc(Nc2ncc(F)c(Nc3ccc4c(n3)NCCO4)n2)ccc1N1CCN(C)CC1 [Compound 1203, N4-(3,4-Dihydro-2H,4H-5-pyrid[1,4]oxazin-6-yl)-5-fluoro-N2-[3-methyl-4-(4-methylpiperazino)phenyl]-2,4-pyrimidinediamine]

pIC50 [1, 5]: > 5.00
Compound: CN1CCN(c2ccc(Nc3ncc(F)c(NC4CCC4)n3)cc2Cl)CC1 [Compound 1188, N4-Cyclobutyl-5-fluoro-N2-[3-chloro-4-(4-methylpiperazino)phenyl]-2,4-pyrimidinediamine]

pIC50 [1, 15]: > 5.00
pIC50 [1, 13]: > 5.00
Compound: CCn1c(C)nc2cc(Nc3ncc(F)c(Nc4ccc5c(c4)NC(=O)[C@H](C)O5)n3)ccc21 [Compound 935]

pIC50 [1, 5]: < 5.00
Compound: Cc1cc(N2CCN(C)CC2)ncc1Nc1ncc(F)c(NC2CCCC2)n1 [Compound 1246]

pIC50 [1, 5]: < 5.00
Compound: CN1C(C)(C)CC(Nc2nc(Cl)ncc2F)CC1(C)C [Compound 1212]
